{"source": "ChEMBL document CHEMBL5226296", "about": "“Reversible Lysine Specific Demethylase 1 (LSD1) Inhibitors: A Promising Wrench to Impair LSD1” (J Med Chem, 2021)", "key": {"[1]": {"target": "T1, Amine oxidase [flavin-containing] A (Homo sapiens, UniProt P21397)", "T1 sequence (P21397 whole entry)": "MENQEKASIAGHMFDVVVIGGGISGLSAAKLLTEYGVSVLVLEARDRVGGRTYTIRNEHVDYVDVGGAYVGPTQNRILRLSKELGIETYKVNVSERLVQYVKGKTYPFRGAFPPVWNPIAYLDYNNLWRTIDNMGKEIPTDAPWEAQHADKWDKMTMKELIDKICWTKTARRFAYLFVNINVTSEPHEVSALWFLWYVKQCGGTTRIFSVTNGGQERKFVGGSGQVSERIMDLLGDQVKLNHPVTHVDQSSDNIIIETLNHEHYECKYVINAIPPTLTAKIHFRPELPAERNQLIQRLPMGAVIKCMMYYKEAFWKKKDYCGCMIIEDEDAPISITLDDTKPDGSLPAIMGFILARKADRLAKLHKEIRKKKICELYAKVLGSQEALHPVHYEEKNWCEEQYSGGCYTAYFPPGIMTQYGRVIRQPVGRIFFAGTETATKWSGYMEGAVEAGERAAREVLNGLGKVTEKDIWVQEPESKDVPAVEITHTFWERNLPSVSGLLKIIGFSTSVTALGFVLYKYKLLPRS", "test": "Inhibition of recombinant MAO-A (unknown origin) by Spectrometric analysis"}, "[2]": {"target": "T2, Amine oxidase [flavin-containing] B (Homo sapiens, UniProt P27338)", "T2 sequence (P27338 whole entry)": "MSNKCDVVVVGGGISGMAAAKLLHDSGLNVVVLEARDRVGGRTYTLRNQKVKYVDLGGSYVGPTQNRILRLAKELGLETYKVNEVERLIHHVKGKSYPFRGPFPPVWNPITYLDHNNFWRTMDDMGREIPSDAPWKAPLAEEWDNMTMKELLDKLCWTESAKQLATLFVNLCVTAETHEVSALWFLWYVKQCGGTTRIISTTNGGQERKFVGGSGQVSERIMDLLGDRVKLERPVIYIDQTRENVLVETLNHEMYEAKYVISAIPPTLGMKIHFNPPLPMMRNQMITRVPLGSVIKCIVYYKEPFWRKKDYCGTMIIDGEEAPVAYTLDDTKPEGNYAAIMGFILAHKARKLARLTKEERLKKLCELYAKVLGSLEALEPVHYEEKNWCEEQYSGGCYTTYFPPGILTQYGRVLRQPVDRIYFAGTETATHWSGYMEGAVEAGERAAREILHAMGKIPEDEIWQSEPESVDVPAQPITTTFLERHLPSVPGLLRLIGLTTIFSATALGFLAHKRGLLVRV", "test": "Inhibition of recombinant MAO-B (unknown origin) by Spectrometric analysis"}, "[3]": {"target": "T3, Lysine-specific histone demethylase 1A (Homo sapiens, UniProt O60341)", "test": "Inhibition of LSD1 (unknown origin) by fluorescence based microplate reader analysis"}, "[4]": {"tested_on": "MDA-MB-231", "test": "Antiproliferative activity against human MDA-MB-231 cells assessed as reduction in cell viability incubated for 48 hrs by MTT assay", "type": "functional, cell-based", "settings": "MDA-MB-231, 48 h"}, "[5]": {"target": "T3, Lysine-specific histone demethylase 1A", "test": "Inhibition of LSD1 (unknown origin) using methylated histone H3K4 peptide as substrate by fluorescence analysis"}, "[6]": {"target": "T3, Lysine-specific histone demethylase 1A", "test": "Inhibition of human GST-tagged LSD1 demethylase activity using H3K4 peptide as substrate by MALDI-TOF analysis"}, "[7]": {"target": "T3, Lysine-specific histone demethylase 1A", "test": "Inhibition of LSD1 (unknown origin)"}, "[8]": {"target": "T3, Lysine-specific histone demethylase 1A", "test": "Inhibition of LSD1 (unknown origin) by fluorescence analysis"}, "[9]": {"target": "T4, MAO-A (Homo sapiens, UniProt P21397)", "T4 sequence (P21397 whole entry)": "T1 sequence (P21397 whole entry)", "test": "Inhibition of recombinant MAO-A (unknown origin) at 1 uM by MAO-GloTM assay"}, "[10]": {"target": "T5, MAO-B (Homo sapiens, UniProt P27338)", "T5 sequence (P27338 whole entry)": "T2 sequence (P27338 whole entry)", "test": "Inhibition of recombinant MAO-B (unknown origin) at 1 uM by MAO-GloTM assay"}, "[11]": {"target": "T3, Lysine-specific histone demethylase 1A", "test": "Inhibition of LSD1 (unknown origin) expressed in Escherichia coli BL21 (DE) using H3K4me2 peptide as substrate incubated for 30 mins by Amplex Red reagent based fluorescence analysis"}, "[12]": {"tested_on": "OCI-AML-3", "test": "Antiproliferative activity against human OCI-AML-3 cells assessed as reduction in cell viability incubated for 6 days by MTS assay", "type": "functional, cell-based", "settings": "OCI-AML-3, 144 h"}, "[13]": {"target": "T5, MAO-B", "test": "Inhibition of recombinant MAO-B (unknown origin) at 1 uM incubated for 15 mins followed by luciferin substrate addition and measured after 60 mins by Promega-Glo analysis", "settings": "probe luciferin substrate, time 75 min"}, "[14]": {"target": "T4, MAO-A", "test": "Inhibition of recombinant MAO-A (unknown origin) at 1 uM incubated for 15 mins followed by luciferin substrate addition and measured after 60 mins by Promega-Glo analysis", "settings": "probe luciferin substrate, time 75 min"}, "[15]": {"tested_on": "K562", "test": "Antiproliferative activity against human K562 cells assessed as reduction in cell viability incubated for 6 days by MTS assay", "type": "functional, cell-based", "settings": "K562, 144 h"}, "[16]": {"tested_on": "Raji", "test": "Antiproliferative activity against human Raji cells assessed as reduction in cell viability incubated for 6 days by MTS assay", "type": "functional, cell-based", "settings": "144 h"}, "[17]": {"target": "T3, Lysine-specific histone demethylase 1A", "test": "Inhibition of LSD1 (unknown origin) using H3K4me2 peptide as substrate at 1 uM incubated for 30 mins by Amplex Red reagent based fluorescence analysis"}, "[18]": {"tested_on": "U-937", "test": "Antiproliferative activity against human U-937 cells assessed as reduction in cell viability incubated for 6 days by MTS assay", "type": "functional, cell-based", "settings": "U-937, 144 h"}, "[19]": {"tested_on": "THP-1", "test": "Antiproliferative activity against human THP-1 cells assessed as reduction in cell viability incubated for 6 days by MTS assay", "type": "functional, cell-based", "settings": "THP-1, 144 h"}, "[20]": {"target": "T3, Lysine-specific histone demethylase 1A", "test": "Inhibition of human LSD1 (172 to 833 residues) expressed in Escherichia coli Rosetta 2 strain using H3K4me1 (1 to 21 residues) as substrate by Amplex Red reagent based fluorescence assay"}, "[21]": {"target": "T3, Lysine-specific histone demethylase 1A", "test": "Inhibition of recombinant LSD1 (unknown origin)"}, "[22]": {"test": "Cytotoxicity against human GES1 cells assessed as reduction in cell viability incubated for 72 hrs by MTT assay", "type": "toxicity, cell-based"}, "[23]": {"tested_on": "MGC-803", "test": "Antiproliferative activity against human MGC-803 cells assessed as reduction in cell viability incubated for 72 hrs by MTT assay", "type": "functional, cell-based"}, "[24]": {"target": "T2, Amine oxidase [flavin-containing] B", "test": "Inhibition of recombinant MAO-B (unknown origin) by MAO-Glo assay"}, "[25]": {"target": "T1, Amine oxidase [flavin-containing] A", "test": "Inhibition of recombinant MAO-A (unknown origin) by MAO-Glo assay"}}, "data": [{"smiles": "O=C(NCCc1ccc([N+](=O)[O-])cc1)c1cccc(NS(=O)(=O)c2ccccc2)c1", "values": [{"measurement": "IC50", "setting": "[1]", "value": 63.9, "unit": "µM"}, {"measurement": "IC50", "setting": "[2]", "value": 298, "unit": "µM"}]}, {"smiles": "COc1c(O[C@H]2O[C@@H](C(=O)O)[C@H](O)[C@@H](O)[C@@H]2O)cc(O)c2c(=O)cc(-c3ccccc3)oc12", "values": [{"measurement": "IC50", "setting": "[3]", "value": 2.98, "unit": "µM"}, {"measurement": "IC50", "setting": "[4]", "value": 19.4, "unit": "µM"}]}, {"smiles": "CSCCc1nc(-c2cccc(N)c2)oc1C", "values": [{"measurement": "IC50", "setting": "[5]", "value": 16.1, "unit": "µM"}]}, {"smiles": "COC(=O)c1cc(CN2CCN(C(=N)N)CC2)cc(C(=O)N2CCN(C(=O)c3ccc(C(=N)N)cc3)CC2)c1", "values": [{"measurement": "IC50", "setting": "[6]", "value": 5.27, "unit": "µM"}]}, {"smiles": "N=C(N)c1ccc(C(=O)N2CCN(C(=O)c3cc(CN4CCN(C(=N)N)CC4)cc([N+](=O)[O-])c3)CC2)cc1", "values": [{"measurement": "IC50", "setting": "[6]", "value": 10.5, "unit": "µM"}]}, {"smiles": "COCc1cccc(NC(=O)c2cc3ccccc3n2C)c1COc1ccc(OC2CCNCC2)cc1", "values": [{"measurement": "IC50", "setting": "[1]", "value": 71, "unit": "µM"}, {"measurement": "IC50", "setting": "[2]", "value": 138, "unit": "µM"}]}, {"smiles": "COc1cc(CNC(=O)CCCC/C=C/C(C)C)ccc1O", "note": "[CAPSAICIN]", "values": [{"measurement": "IC50", "setting": "[7]", "value": 0.6, "unit": "µM"}]}, {"smiles": "COc1c(O)cc2oc3cc(O)c(CC=C(C)C)c(O)c3c(=O)c2c1CC=C(C)C", "note": "[MANGOSTIN]", "values": [{"measurement": "IC50", "setting": "[4]", "value": 12.8, "unit": "µM"}, {"measurement": "IC50", "setting": "[8]", "value": 2.81, "unit": "µM"}]}, {"smiles": "COc1cc2c(cc1OC)-c1cc3ccc4c(c3c[n+]1CC2)OCO4", "values": [{"measurement": "inhibition at 1 µM", "setting": "[9]", "value": "< 30", "unit": "%"}, {"measurement": "inhibition at 1 µM", "setting": "[10]", "value": "< 30", "unit": "%"}, {"measurement": "IC50", "setting": "[11]", "value": 0.14, "unit": "µM"}]}, {"smiles": "C#CCSc1nc(Sc2nnnn2-c2ccccc2)c2nnn(Cc3ccccc3Cl)c2n1", "values": [{"measurement": "IC50", "setting": "[12]", "value": 1.79, "unit": "µM"}, {"measurement": "inhibition at 1.25 h, 1 µM", "setting": "[13]", "value": "< 10", "unit": "%"}, {"measurement": "inhibition at 1.25 h, 1 µM", "setting": "[14]", "value": "< 10", "unit": "%"}, {"measurement": "IC50", "setting": "[15]", "value": 1.3, "unit": "µM"}, {"measurement": "IC50", "setting": "[16]", "value": 1.4, "unit": "µM"}, {"measurement": "inhibition", "setting": "[17]", "value": 95.6, "unit": "%"}, {"measurement": "IC50", "setting": "[18]", "value": 1.22, "unit": "µM"}, {"measurement": "IC50", "setting": "[19]", "value": 0.45, "unit": "µM"}]}, {"smiles": "CSCC[C@@H]1NC(=O)[C@@H](NC(=O)[C@H](CCCNC(=N)N)NC(=O)[C@H](C)N)CCCCNC(=O)CC[C@@H](C(=O)N[C@@H](CCC(=O)O)C(=O)N[C@@H](C)C(=O)N[C@@H](CCCNC(=N)N)C(=O)N[C@@H](CCCCN)C(=O)N[C@@H](CO)C(=O)N[C@H](C(=O)O)[C@@H](C)O)NC1=O", "values": [{"measurement": "Ki", "setting": "[20]", "value": 2.3, "unit": "µM"}]}, {"smiles": "Cc1ccc(S(=O)(=O)Nc2cccc(C(=O)NCCc3ccc([N+](=O)[O-])cc3)c2)cc1", "values": [{"measurement": "IC50", "setting": "[1]", "value": 90, "unit": "µM"}, {"measurement": "IC50", "setting": "[2]", "value": 226, "unit": "µM"}]}, {"smiles": "C=CC(=O)Nc1cc(Nc2nccc(-c3cn(C)c4ccccc34)n2)c(OC)cc1N(C)CCN(C)C", "note": "[OSIMERTINIB]", "values": [{"measurement": "IC50", "setting": "[21]", "value": 3.98, "unit": "µM"}]}, {"smiles": "COc1ccc(-c2coc3cc(O)cc(O)c3c2=O)cc1", "note": "[BIOCHANIN]", "values": [{"measurement": "IC50 at 72 h", "setting": "[22]", "value": "> 32", "unit": "µM"}, {"measurement": "IC50", "setting": "[23]", "value": 2.95, "unit": "µM"}]}, {"smiles": "CC(C)(C)OC(=O)N1CCN(C(=S)SCC(=O)Nc2ccc(C(=O)/C=C/c3ccccc3F)cc2)CC1", "values": [{"measurement": "IC50", "setting": "[24]", "value": "> 20", "unit": "µM"}, {"measurement": "IC50", "setting": "[25]", "value": "> 20", "unit": "µM"}]}, {"smiles": "Cc1ccc(S(=O)(=O)Nc2cccc(C(=O)NCCc3ccc(O)cc3)c2)cc1", "values": [{"measurement": "IC50", "setting": "[1]", "value": 109, "unit": "µM"}, {"measurement": "IC50", "setting": "[2]", "value": 344, "unit": "µM"}]}]}
